ChEMBL document CHEMBL3763038, “Design and synthesis of a new generation of substituted purine hydroxamate analogs as histone deacetylase inhibitors” (Bioorg Med Chem, 2016)

Assays:
Histone deacetylase 8 = molecular target: T1, Histone deacetylase 8 (Homo sapiens, UniProt Q9BY41); assay: Inhibition of C-terminal His-tagged human recombinant HDAC8 expressed in Sf9 cells after 30 mins by microtiter plate reader analysis
T1 sequence (Q9BY41 whole entry): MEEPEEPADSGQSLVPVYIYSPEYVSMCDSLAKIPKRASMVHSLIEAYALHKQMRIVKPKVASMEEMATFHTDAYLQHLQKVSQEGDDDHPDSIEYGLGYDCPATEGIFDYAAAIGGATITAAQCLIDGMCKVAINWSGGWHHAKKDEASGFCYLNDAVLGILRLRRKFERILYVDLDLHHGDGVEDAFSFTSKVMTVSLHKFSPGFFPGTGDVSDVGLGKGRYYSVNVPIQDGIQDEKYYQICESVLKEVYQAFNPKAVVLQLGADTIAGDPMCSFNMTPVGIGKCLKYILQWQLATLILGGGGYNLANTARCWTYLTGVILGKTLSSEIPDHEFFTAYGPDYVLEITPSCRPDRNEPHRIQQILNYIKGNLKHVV

MDA-MB-231 = assay: Antiproliferative activity against human MDA-MB-231 cells after 48 hrs by MTT assay; type: functional, cell-based; conditions: MDA-MB-231, 48 h
[1] = Antiproliferative activity against human KG1 cells after 48 hrs by MTT assay; type: functional, cell-based; conditions: KG-1, 48 h
[2] = Antiproliferative activity against human PC3 cells after 48 hrs by MTT assay; type: functional, cell-based; conditions: PC-3, 48 h
Histone deacetylase 2 = Histone deacetylase 2 (Homo sapiens, UniProt Q92769); assay: Inhibition of C-terminal GST-tagged human recombinant HDAC2 expressed in Sf9 cells after 30 mins by microtiter plate reader analysis; type: cell-based
Chain of Histone deacetylase 2 (Q92769 whole entry): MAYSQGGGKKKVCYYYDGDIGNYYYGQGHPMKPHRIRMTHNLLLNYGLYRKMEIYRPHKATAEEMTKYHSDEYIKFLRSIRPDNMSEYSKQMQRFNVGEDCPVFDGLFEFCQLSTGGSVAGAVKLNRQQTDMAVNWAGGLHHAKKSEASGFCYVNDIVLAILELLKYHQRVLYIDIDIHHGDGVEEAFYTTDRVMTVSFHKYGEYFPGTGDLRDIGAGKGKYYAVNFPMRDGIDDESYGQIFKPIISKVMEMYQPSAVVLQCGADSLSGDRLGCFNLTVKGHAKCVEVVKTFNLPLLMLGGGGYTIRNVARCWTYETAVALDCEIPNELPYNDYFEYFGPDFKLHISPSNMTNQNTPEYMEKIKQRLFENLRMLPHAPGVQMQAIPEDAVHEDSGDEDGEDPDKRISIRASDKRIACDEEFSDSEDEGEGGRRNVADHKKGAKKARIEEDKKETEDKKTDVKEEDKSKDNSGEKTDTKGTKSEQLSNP

[3] = molecular target: Histone deacetylase (HDAC1 and HDAC2) (Homo sapiens, UniProt Q13547+Q92769); assay: Inhibition of HDAC1/2 in human HeLa cell nuclear extract using color de Lys as substrate preincubated for 5 mins followed by substrate addition measured after 30 min by microtiter plate reader analysis; type: cell-based

Row | Compound | IC50 (Histone deacetylase 8) [nM] | IC50 (MDA-MB-231) [nM] | IC50 (Histone deacetylase 2) [nM] | IC50 [3] [nM] | IC50 [1] [nM] | IC50 [2] [nM]
1 | O=C(CCCCCNc1nc(Cl)nc2c1ncn2Cc1ccccc1)NO | 1440 | 1120 | 56 | 26 | 320 | 2830
2 | CC(C)Cn1cnc2c(NCCCCCCC(=O)NO)nc(Cl)nc21 | 2010 | 1650 | 165 | 27 | 860 | 1380

The next lines start with results.

Row | IC50 (Histone deacetylase 8) [nM] | IC50 (MDA-MB-231) [nM] | IC50 (Histone deacetylase 2) [nM] | IC50 [3] [nM] | Compound | IC50 [1] [nM] | IC50 [2] [nM]
3 | 3130 | 3300 | – | – | CC(C)n1cnc2c(NCCCCCCC(=O)NO)nc(N)nc21 | 3430 | 6860
4 | – | – | – | 157 | O=C(CCCCCCNc1nc(N2CCOCC2)nc2[nH]cnc12)NO | – | –
5 | – | – | – | 130 | CCCCn1cnc2c(NCCCCCC(=O)NO)nc(N3CCOCC3)nc21 | – | –
